# Assay results published in PubChem BioAssay (NCI).
#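 Tested at 5 concentrations; 48 h exposure; 96-well plates; endpoints linearly interpolated, else capped at highest concentration. GI50 = concentration required for 50% inhibition of growth. TGI is the concentration that stops growth completely.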
# How the values were obtained:
# Assay in all cases: NCI-60 cell line screen, 48 h
# DU-145 prostate = tested on: DU-145 prostate
# NCI-H23 lung = tested on: NCI-H23 lung
# RPMI-8226 leukemia = tested on: RPMI-8226 leukemia
# UACC-62 melanoma = tested on: UACC-62 melanoma
# A549 NSCLC = tested on: A549 NSCLC
# PC-3 prostate = tested on: PC-3 prostate
# HCT-116 colon = tested on: HCT-116 colon
# SN12C renal = tested on: SN12C renal
# M14 melanoma = tested on: M14 melanoma
# 786-0 renal = tested on: 786-0 renal
# MOLT-4 leukemia = tested on: MOLT-4 leukemia
# SF-268 CNS = tested on: SF-268 CNS
# SNB-19 CNS = tested on: SNB-19 CNS
# NCI-H522 lung = tested on: NCI-H522 lung
# MDA-MB-231 breast = tested on: MDA-MB-231 breast
# A498 renal = tested on: A498 renal
# RXF 393 renal = tested on: RXF 393 renal
# UO-31 renal = tested on: UO-31 renal
# LOX IMVI melanoma = tested on: LOX IMVI melanoma
# IGROV1 ovarian = tested on: IGROV1 ovarian
# SF-295 CNS = tested on: SF-295 CNS
# COLO 205 colon = tested on: COLO 205 colon
# SF-539 CNS = tested on: SF-539 CNS
# HL-60(TB) leukemia = tested on: HL-60(TB) leukemia
# HCT-15 colon = tested on: HCT-15 colon
# SK-MEL-5 melanoma = tested on: SK-MEL-5 melanoma
# K-562 leukemia = tested on: K-562 leukemia
# HCC-2998 colon = tested on: HCC-2998 colon
# T-47D breast = tested on: T-47D breast
# MCF7 breast = tested on: MCF7 breast
# HOP-62 NSCLC = tested on: HOP-62 NSCLC
# SNB-75 CNS = tested on: SNB-75 CNS
# NCI-H460 lung = tested on: NCI-H460 lung
# SK-MEL-2 melanoma = tested on: SK-MEL-2 melanoma
# HOP-92 NSCLC = tested on: HOP-92 NSCLC
# MDA-MB-435 = tested on: MDA-MB-435
# U251 CNS = tested on: U251 CNS
# HT29 colon = tested on: HT29 colon
# NCI-H226 lung = tested on: NCI-H226 lung
# NCI/ADR-RES ovarian = tested on: NCI/ADR-RES ovarian
# OVCAR-5 ovarian = tested on: OVCAR-5 ovarian
# OVCAR-3 ovarian = tested on: OVCAR-3 ovarian
# HS 578T breast = tested on: HS 578T breast
# ACHN renal = tested on: ACHN renal
# CCRF-CEM leukemia = tested on: CCRF-CEM leukemia
# MALME-3M melanoma = tested on: MALME-3M melanoma
# BT-549 breast = tested on: BT-549 breast
# SW-620 colon = tested on: SW-620 colon
# TK-10 renal = tested on: TK-10 renal
# SK-MEL-28 melanoma = tested on: SK-MEL-28 melanoma
# KM12 colon = tested on: KM12 colon
# OVCAR-8 ovarian = tested on: OVCAR-8 ovarian
# UACC-257 melanoma = tested on: UACC-257 melanoma
# SK-OV-3 ovarian = tested on: SK-OV-3 ovarian
# OVCAR-4 ovarian = tested on: OVCAR-4 ovarian
# CAKI-1 renal = tested on: CAKI-1 renal
smiles,measurement,setting,value
CCOC(=O)c1ccc(N(C=O)CCC(=O)CCl)cc1,GI50,DU-145 prostate,366 nM
same,TGI,DU-145 prostate,13.9 µM
same,GI50,NCI-H23 lung,483 nM
same,TGI,NCI-H23 lung,7.81 µM
same,GI50,RPMI-8226 leukemia,130 nM
same,TGI,RPMI-8226 leukemia,2830 nM
same,GI50,UACC-62 melanoma,524 nM
same,TGI,UACC-62 melanoma,3.69 µM
same,GI50,A549 NSCLC,1370 nM
same,TGI,A549 NSCLC,12.7 µM
same,GI50,PC-3 prostate,401 nM
same,TGI,PC-3 prostate,14.8 µM
same,GI50,HCT-116 colon,34.2 nM
same,TGI,HCT-116 colon,1730 nM
same,GI50,SN12C renal,217 nM
same,TGI,SN12C renal,4.27 µM
same,GI50,M14 melanoma,55.3 nM
same,TGI,M14 melanoma,1500 nM
same,GI50,786-0 renal,333 nM
same,TGI,786-0 renal,4.08 µM
same,GI50,MOLT-4 leukemia,43.3 nM
same,TGI,MOLT-4 leukemia,3.88 µM
same,GI50,SF-268 CNS,411 nM
same,TGI,SF-268 CNS,4.95 µM
same,GI50,SNB-19 CNS,2370 nM
same,TGI,SNB-19 CNS,22.4 µM
same,GI50,NCI-H522 lung,138 nM
same,TGI,NCI-H522 lung,617 nM
same,GI50,MDA-MB-231 breast,275 nM
same,TGI,MDA-MB-231 breast,1160 nM
same,GI50,A498 renal,1470 nM
same,TGI,A498 renal,5.87 µM
same,GI50,RXF 393 renal,260 nM
same,TGI,RXF 393 renal,4.49 µM
same,GI50,UO-31 renal,552 nM
same,TGI,UO-31 renal,1980 nM
same,GI50,LOX IMVI melanoma,58.6 nM
same,TGI,LOX IMVI melanoma,1310 nM
same,GI50,IGROV1 ovarian,537 nM
same,TGI,IGROV1 ovarian,8.33 µM
same,GI50,SF-295 CNS,1200 nM
same,TGI,SF-295 CNS,13 µM
same,GI50,COLO 205 colon,315 nM
same,TGI,COLO 205 colon,838 nM
same,GI50,SF-539 CNS,249 nM
same,TGI,SF-539 CNS,778 nM
same,GI50,HL-60(TB) leukemia,43.8 nM
same,TGI,HL-60(TB) leukemia,351 nM
same,GI50,HCT-15 colon,48.7 nM
same,TGI,HCT-15 colon,2580 nM
same,GI50,SK-MEL-5 melanoma,344 nM
same,TGI,SK-MEL-5 melanoma,1550 nM
same,GI50,K-562 leukemia,35.3 nM
same,TGI,K-562 leukemia,> 69.3 µM
same,GI50,HCC-2998 colon,372 nM
same,TGI,HCC-2998 colon,1540 nM
same,GI50,T-47D breast,1160 nM
same,TGI,T-47D breast,3.45 µM
same,GI50,MCF7 breast,53.2 nM
same,GI50,HOP-62 NSCLC,485 nM
same,TGI,HOP-62 NSCLC,13.4 µM
same,GI50,SNB-75 CNS,997 nM
same,TGI,SNB-75 CNS,13.6 µM
same,GI50,NCI-H460 lung,355 nM
same,TGI,NCI-H460 lung,11.1 µM
same,GI50,SK-MEL-2 melanoma,465 nM
same,TGI,SK-MEL-2 melanoma,2140 nM
same,GI50,HOP-92 NSCLC,64 nM
same,TGI,HOP-92 NSCLC,794 nM
same,GI50,MDA-MB-435,90.8 nM
same,TGI,MDA-MB-435,370 nM
same,GI50,U251 CNS,342 nM
same,TGI,U251 CNS,10.8 µM
same,GI50,HT29 colon,186 nM
same,TGI,HT29 colon,1180 nM
same,GI50,NCI-H226 lung,297 nM
same,TGI,NCI-H226 lung,1360 nM
same,GI50,NCI/ADR-RES ovarian,393 nM
same,TGI,NCI/ADR-RES ovarian,19.4 µM
same,GI50,OVCAR-5 ovarian,474 nM
same,TGI,OVCAR-5 ovarian,9.23 µM
same,GI50,OVCAR-3 ovarian,399 nM
same,TGI,OVCAR-3 ovarian,1350 nM
same,GI50,HS 578T breast,311 nM
same,TGI,HS 578T breast,2890 nM
same,GI50,ACHN renal,432 nM
same,TGI,ACHN renal,1810 nM
same,GI50,CCRF-CEM leukemia,37 nM
same,TGI,CCRF-CEM leukemia,1600 nM
same,GI50,MALME-3M melanoma,1490 nM
same,TGI,MALME-3M melanoma,3.48 µM
same,GI50,BT-549 breast,58.8 nM
same,TGI,BT-549 breast,884 nM
same,GI50,SW-620 colon,39.8 nM
same,TGI,SW-620 colon,1530 nM
same,GI50,TK-10 renal,1780 nM
same,TGI,TK-10 renal,7.03 µM
same,GI50,SK-MEL-28 melanoma,1740 nM
same,TGI,SK-MEL-28 melanoma,15.2 µM
same,GI50,KM12 colon,400 nM
same,TGI,KM12 colon,15.4 µM
same,GI50,OVCAR-8 ovarian,99.8 nM
same,TGI,OVCAR-8 ovarian,11.3 µM
same,GI50,UACC-257 melanoma,1500 nM
same,TGI,UACC-257 melanoma,8.33 µM
same,GI50,SK-OV-3 ovarian,1410 nM
same,TGI,SK-OV-3 ovarian,13.2 µM
same,GI50,OVCAR-4 ovarian,79 nM
same,TGI,OVCAR-4 ovarian,3.61 µM
same,GI50,CAKI-1 renal,528 nM
same,TGI,CAKI-1 renal,2050 nM
